The values that follow come from patent US12065436B2, “Cardiac sarcomere inhibitors” (Cytokinetics, Inc., priority 2018, dated 2024).

This assay deals with bovine cardiac myofibrils (full-length cardiac myosin ATPase in the native sarcomere) (Bos taurus (Bovine), UniProt Q9BE39). Put plainly: Skinned bovine cardiac myofibril ATPase assay (PK/LDH-coupled). Type of assay: biochemical. To be noted: Ca2+ activating to 75% of maximal rate; for CDMF75 IC15: concentration giving 15% inhibition; for IC50: read-out: CDMF75 IC50. A digest of the protocol: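 Triton-skinned bovine left-ventricle myofibrils (1 mg/mL) in PM 12 buffer (12 mM PIPES, 2 mM MgCl2, pH 6.8) with 50 μM ATP, 0.6 mM EGTA and CaCl2 set for 50% or 75% activation. Steady-state ATPase inhibition followed by PK/LDH-coupled NADH oxidation at 340 nm.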
bovine cardiac myofibrils (full-length cardiac myosin ATPase in the native sarcomere), sequence (Q9BE39 whole entry): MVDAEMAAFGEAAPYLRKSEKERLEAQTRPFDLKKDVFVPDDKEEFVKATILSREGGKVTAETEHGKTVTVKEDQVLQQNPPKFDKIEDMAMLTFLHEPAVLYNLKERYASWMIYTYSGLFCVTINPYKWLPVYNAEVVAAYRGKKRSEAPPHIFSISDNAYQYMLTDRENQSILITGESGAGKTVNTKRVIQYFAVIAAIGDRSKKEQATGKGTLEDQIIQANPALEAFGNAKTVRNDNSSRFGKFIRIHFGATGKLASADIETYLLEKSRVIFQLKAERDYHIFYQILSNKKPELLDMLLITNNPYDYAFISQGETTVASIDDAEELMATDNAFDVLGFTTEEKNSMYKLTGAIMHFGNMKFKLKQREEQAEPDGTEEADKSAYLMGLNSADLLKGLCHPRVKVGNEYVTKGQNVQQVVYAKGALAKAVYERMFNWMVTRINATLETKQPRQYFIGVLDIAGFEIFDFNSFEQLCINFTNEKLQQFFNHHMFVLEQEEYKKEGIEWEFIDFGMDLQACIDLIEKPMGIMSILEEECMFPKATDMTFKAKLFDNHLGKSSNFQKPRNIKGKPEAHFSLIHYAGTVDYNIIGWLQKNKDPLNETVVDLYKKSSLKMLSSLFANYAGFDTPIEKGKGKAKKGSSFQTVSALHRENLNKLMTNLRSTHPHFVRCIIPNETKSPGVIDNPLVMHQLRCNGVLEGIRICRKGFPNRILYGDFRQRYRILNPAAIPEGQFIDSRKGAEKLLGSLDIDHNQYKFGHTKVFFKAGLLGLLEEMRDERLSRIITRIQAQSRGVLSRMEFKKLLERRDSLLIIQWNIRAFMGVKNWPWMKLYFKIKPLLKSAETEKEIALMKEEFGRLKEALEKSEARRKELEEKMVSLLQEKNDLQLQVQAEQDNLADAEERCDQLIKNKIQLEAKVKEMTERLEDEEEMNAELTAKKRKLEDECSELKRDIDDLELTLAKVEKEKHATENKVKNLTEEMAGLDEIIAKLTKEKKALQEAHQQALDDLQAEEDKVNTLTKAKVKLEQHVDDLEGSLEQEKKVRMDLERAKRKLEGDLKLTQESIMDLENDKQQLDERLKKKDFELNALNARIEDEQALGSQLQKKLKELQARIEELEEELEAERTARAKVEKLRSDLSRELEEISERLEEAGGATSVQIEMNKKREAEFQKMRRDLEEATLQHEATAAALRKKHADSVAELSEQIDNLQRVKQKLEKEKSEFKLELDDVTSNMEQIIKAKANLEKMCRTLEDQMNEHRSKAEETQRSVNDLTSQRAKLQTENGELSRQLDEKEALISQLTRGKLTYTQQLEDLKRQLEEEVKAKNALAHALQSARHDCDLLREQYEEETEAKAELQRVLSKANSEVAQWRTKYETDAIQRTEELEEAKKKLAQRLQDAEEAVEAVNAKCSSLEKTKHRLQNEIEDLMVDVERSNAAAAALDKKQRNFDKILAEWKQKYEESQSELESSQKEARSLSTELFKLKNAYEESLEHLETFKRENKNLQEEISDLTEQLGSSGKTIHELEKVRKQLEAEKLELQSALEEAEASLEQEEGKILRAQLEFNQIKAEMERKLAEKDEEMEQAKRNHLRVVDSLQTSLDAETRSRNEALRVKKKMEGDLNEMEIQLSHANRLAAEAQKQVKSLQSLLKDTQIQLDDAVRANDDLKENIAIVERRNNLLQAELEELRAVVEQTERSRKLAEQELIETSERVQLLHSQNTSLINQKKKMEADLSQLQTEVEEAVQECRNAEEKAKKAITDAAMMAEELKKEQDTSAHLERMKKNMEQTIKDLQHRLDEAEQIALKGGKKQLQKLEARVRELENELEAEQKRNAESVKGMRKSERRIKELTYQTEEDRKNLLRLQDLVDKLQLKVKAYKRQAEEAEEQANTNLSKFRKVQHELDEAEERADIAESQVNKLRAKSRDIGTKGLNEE
bovine cardiac myofibrils (full-length cardiac myosin ATPase in the native sarcomere), sequence (P85100 whole entry partner): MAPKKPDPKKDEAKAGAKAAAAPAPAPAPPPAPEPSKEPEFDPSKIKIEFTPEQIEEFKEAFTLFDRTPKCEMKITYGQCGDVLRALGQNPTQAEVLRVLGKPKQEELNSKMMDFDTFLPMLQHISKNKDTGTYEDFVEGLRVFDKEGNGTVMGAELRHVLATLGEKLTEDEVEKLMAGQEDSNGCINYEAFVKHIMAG
bovine cardiac myofibrils (full-length cardiac myosin ATPase in the native sarcomere), sequence (Q3SZE5 whole entry partner): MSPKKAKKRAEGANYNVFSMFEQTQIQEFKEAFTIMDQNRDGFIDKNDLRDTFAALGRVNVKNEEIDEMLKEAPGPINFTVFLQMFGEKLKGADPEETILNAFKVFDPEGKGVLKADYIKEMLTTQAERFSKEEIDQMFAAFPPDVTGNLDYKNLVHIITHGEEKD

SMILES strings stand for the structures.

In the case of `Cc1cc(C(=O)NC2CCc3cc(-c4cc(C(F)F)on4)ccc32)ccn1` (stereo not shown) [Compound 168, N-(5-(5-(difluoromethyl)isoxazol-3-yl)-2,3-dihydro-1H-inden-1-yl)-2-methylisonicotinamide], the “CDMF75 IC15” value was 1.1 µM and the 50% inhibitory concentration (IC50) (as a rule, the concentration that gives 50% inhibition) was determined as 3.8 µM.

On to `Cn1cnc(C(=O)NC2CCc3cc(-c4noc(C(F)F)n4)ccc32)n1` (stereo not shown) [Compound 118, N-(5-(5-(difluoromethyl)-1,2,4-oxadiazol-3-yl)-2,3-dihydro-1H-inden-1-yl)-1-methyl-1H-1,2,4-triazole-3-carboxamide], for which the “CDMF75 IC15” value was 19.3 µM and the IC50 was greater than 39.2 µM.

Turning to `CCc1nc(-c2ccc3c(c2)CC[C@H]3NC(=O)c2cnoc2C)no1` [Compound 564, (R)-N-(5-(5-ethyl-1,2,4-oxadiazol-3-yl)-2,3-dihydro-1H-inden-1-yl)-5-methylisoxazole-4-carboxamide], the “CDMF75 IC15” value stood at 0.2 µM and the IC50 worked out at 0.6 µM.

Take `Cc1nc(-c2ccc3c(c2)CC[C@H]3NC(=O)c2cnc(C)o2)no1` [Compound 48, (R)-2-methyl-N-(5-(5-methyl-1,2,4-oxadiazol-3-yl)-2,3-dihydro-1H-inden-1-yl)oxazole-5-carboxamide]: the “CDMF75 IC15” value is 1.4 µM and the IC50 was 4.9 µM.

For the compound `CCc1nc(-c2ccc3c(c2)CC[C@H]3NC(=O)OCC2CN(C(N)=O)C2)no1` [Compound 362, (1-carbamoylazetidin-3-yl)methyl (R)-(5-(5-ethyl-1,2,4-oxadiazol-3-yl)-2,3-dihydro-1H-inden-1-yl)carbamate], the “CDMF75 IC15” value worked out at 1.9 µM and the IC50 was found to be 6.6 µM.

`Cc1cc(C(=O)N[C@@H]2CCc3cc(-c4noc(C(F)F)n4)ccc32)cnn1` [Compound 687, (R)-N-(5-(5-(difluoromethyl)-1,2,4-oxadiazol-3-yl)-2,3-dihydro-1H-inden-1-yl)-6-methylpyridazine-4-carboxamide]: the “CDMF75 IC15” value stood at 1.0 µM and the IC50 was 4.4 µM.

Take `Cc1nc(-c2ccc3c(c2)CCC3NC(=O)c2c[nH]nc2C)no1` (stereo not shown) [Compound 70, 3-methyl-N-(5-(5-methyl-1,2,4-oxadiazol-3-yl)-2,3-dihydro-1H-inden-1-yl)-1H-pyrazole-4-carboxamide]: the “CDMF75 IC15” value is 1.4 µM and the IC50 amounted to 4.8 µM.

For the compound `CCc1nc(-c2ccc3c(c2)CC[C@H]3NC(=O)c2cnco2)no1` [Compound 583, (R)-N-(5-(5-ethyl-1,2,4-oxadiazol-3-yl)-2,3-dihydro-1H-inden-1-yl)oxazole-5-carboxamide], the “CDMF75 IC15” value was 0.4 µM and the IC50 worked out at 1.3 µM.

For `COCc1nc(-c2ccc3c(c2)CC[C@H]3NC(=O)c2nonc2C)no1` [Compound 692, (R)-N-(5-(5-(methoxymethyl)-1,2,4-oxadiazol-3-yl)-2,3-dihydro-1H-inden-1-yl)-4-methyl-1,2,5-oxadiazole-3-carboxamide], the “CDMF75 IC15” value was found to be 1.0 µM and the half-maximal inhibitory concentration (IC50) is 4.6 µM.

In the case of `CCc1nc(-c2ccc3c(c2)CC[C@H]3NC(=O)c2nnn(C)c2C)no1` [Compound 621, (R)-N-(5-(5-ethyl-1,2,4-oxadiazol-3-yl)-2,3-dihydro-1H-inden-1-yl)-1,5-dimethyl-1H-1,2,3-triazole-4-carboxamide], the “CDMF75 IC15” value turned out to be 1.6 µM and the IC50 came to 6.1 µM.

With `Cc1nc(-c2ccc3c(c2)CCC3NC(=O)Nc2ccncn2)no1` (stereo not shown) [Compound 98, 1-(5-(5-methyl-1,2,4-oxadiazol-3-yl)-2,3-dihydro-1H-inden-1-yl)-3-(pyrimidin-4-yl)urea], the “CDMF75 IC15” value was determined as 13.1 µM and the IC50 is greater than 39.2 µM.

For `COCCn1cc(C(=O)N[C@@H]2CCc3cc(-c4noc(C)n4)ccc32)cn1` [Compound 509, (R)-1-(2-methoxyethyl)-N-(5-(5-methyl-1,2,4-oxadiazol-3-yl)-2,3-dihydro-1H-inden-1-yl)-1H-pyrazole-4-carboxamide], the “CDMF75 IC15” value was 3.2 µM and the IC50 is 12.8 µM.

Regarding `CCc1nc(-c2ccc3c(c2)OC[C@H]3NC(=O)N2CC[C@@H](O)C2)no1` [Compound 740, (R)-N-((S)-6-(5-ethyl-1,2,4-oxadiazol-3-yl)-2,3-dihydrobenzofuran-3-yl)-3-hydroxypyrrolidine-1-carboxamide], the “CDMF75 IC15” value amounted to 1.9 µM and the IC50 was 6.9 µM.

Consider `Cc1cc(C(=O)NC2CCc3cc(-c4nc(C(F)F)no4)ccc32)ccn1` (stereo not shown) [Compound 132, N-(5-(3-(difluoromethyl)-1,2,4-oxadiazol-5-yl)-2,3-dihydro-1H-inden-1-yl)-2-methylisonicotinamide], for which the “CDMF75 IC15” value turned out to be 4.3 µM and the half-maximal inhibitory concentration (IC50) was 17.7 µM.

In the case of `CC(=O)OCc1nc(-c2ccc3c(c2)CCC3NC(=O)c2cn(C)nc2C)no1` (stereo not shown) [Compound 74, (3-(1-(1,3-dimethyl-1H-pyrazole-4-carboxamido)-2,3-dihydro-1H-inden-5-yl)-1,2,4-oxadiazol-5-yl)methyl acetate], the “CDMF75 IC15” value worked out at 22.3 µM and the 50% inhibitory concentration (IC50) was greater than 39.2 µM.

For `CCc1noc(-c2ccc3c(c2)CC[C@H]3NC(=O)c2cnn(C)c2C)n1` [Compound 255, (R)-N-(5-(3-ethyl-1,2,4-oxadiazol-5-yl)-2,3-dihydro-1H-inden-1-yl)-1,5-dimethyl-1H-pyrazole-4-carboxamide], the “CDMF75 IC15” value is 0.8 µM and the IC50 stood at 2.6 µM.

Regarding `CCc1nc(-c2ccc3c(c2)CC[C@H]3NC(=O)c2cnn(CC(C)(C)O)c2)no1` [Compound 476, (R)-N-(5-(5-ethyl-1,2,4-oxadiazol-3-yl)-2,3-dihydro-1H-inden-1-yl)-1-(2-hydroxy-2-methylpropyl)-1H-pyrazole-4-carboxamide], the “CDMF75 IC15” value worked out at 4.2 µM and the IC50 is 19.5 µM.

On to `O=C(N[C@@H]1CCc2cc(-c3noc(C(F)F)n3)ccc21)C1CCC1` [Compound 309, (R)-N-(5-(5-(difluoromethyl)-1,2,4-oxadiazol-3-yl)-2,3-dihydro-1H-inden-1-yl)cyclobutanecarboxamide], for which the “CDMF75 IC15” value was 39.2 µM and the IC50 was greater than 39.2 µM.

On to `Cc1ncoc1C(=O)NC1CCc2cc(-c3noc(C(F)F)n3)ccc21` (stereo not shown) [Compound 12, N-(5-(5-(difluoromethyl)-1,2,4-oxadiazol-3-yl)-2,3-dihydro-1H-inden-1-yl)-4-methyloxazole-5-carboxamide], for which the “CDMF75 IC15” value is 0.6 µM and the IC50 worked out at 2 µM.

Regarding `Cc1cc(C(=O)N[C@@H]2CCc3cc(-c4noc(C(F)F)n4)ccc32)n(C)n1` [Compound 101, (R)-N-(5-(5-(difluoromethyl)-1,2,4-oxadiazol-3-yl)-2,3-dihydro-1H-inden-1-yl)-1,3-dimethyl-1H-pyrazole-5-carboxamide], the “CDMF75 IC15” value was 0.3 µM and the IC50 was 1.1 µM.

As to `Cc1noc(-c2ccc3c(c2)CC[C@H]3NC(=O)c2cnn(C)c2)n1` [Compound 263, (R)-1-methyl-N-(5-(3-methyl-1,2,4-oxadiazol-5-yl)-2,3-dihydro-1H-inden-1-yl)-1H-pyrazole-4-carboxamide], the “CDMF75 IC15” value was determined as 2.8 µM and the IC50 stood at 10.5 µM.

As for `CC(C)(C)OC(=O)NC1CCc2cc(-c3noc(C(F)F)n3)ccc21` (stereo not shown) [Compound 16, tert-butyl (5-(5-(difluoromethyl)-1,2,4-oxadiazol-3-yl)-2,3-dihydro-1H-inden-1-yl)carbamate], the “CDMF75 IC15” value came to 8.9 µM and the IC50 is greater than 39.2 µM.

Take `CCc1nc(-c2ccc3c(c2)CC[C@H]3NC(=O)c2cnn(CC3(F)COC3)c2)no1` [Compound 508, (R)-N-(5-(5-ethyl-1,2,4-oxadiazol-3-yl)-2,3-dihydro-1H-inden-1-yl)-1-((3-fluorooxetan-3-yl)methyl)-1H-pyrazole-4-carboxamide]: the “CDMF75 IC15” value worked out at 2.6 µM and the IC50 amounted to 11.3 µM.

Regarding `Cc1cnc(-c2ccc3c(c2)CC[C@H]3NC(=O)c2ccnn2C)s1` [Compound 371, (R)-1-methyl-N-(5-(5-methylthiazol-2-yl)-2,3-dihydro-1H-inden-1-yl)-1H-pyrazole-5-carboxamide], the “CDMF75 IC15” value turned out to be 0.7 µM and the IC50 was found to be 2.9 µM.

Take `[2H]C([2H])([2H])c1nc(-c2ccc3c(c2)OC[C@H]3NC(=O)c2ccnn2C)no1` [Compound 262, (S)-1-methyl-N-(6-(5-(methyl-d3)-1,2,4-oxadiazol-3-yl)-2,3-dihydrobenzofuran-3-yl)-1H-pyrazole-5-carboxamide]: the “CDMF75 IC15” value was determined as 0.7 µM and the IC50 came to 1.9 µM.

On to `CCOC(=O)c1cc(C(=O)N[C@@H]2CCc3cc(-c4noc(CC)n4)ccc32)ccn1` [Compound 555, Ethyl (R)-4-((5-(5-ethyl-1,2,4-oxadiazol-3-yl)-2,3-dihydro-1H-inden-1-yl)carbamoyl)picolinate], for which the “CDMF75 IC15” value turned out to be 1.0 µM and the IC50 is 3.5 µM.

Consider `CCc1nc(-c2ccc3c(c2)CC[C@H]3NC(=O)c2cc(Cl)no2)no1` [Compound 620, (R)-3-chloro-N-(5-(5-ethyl-1,2,4-oxadiazol-3-yl)-2,3-dihydro-1H-inden-1-yl)isoxazole-5-carboxamide], for which the “CDMF75 IC15” value is 0.2 µM and the IC50 was found to be 0.6 µM.

In the case of `Cc1cc(C(=O)N[C@@H]2CCc3cc(-c4noc(C5CCC5)n4)ccc32)ccn1` [Compound 412, (R)-N-(5-(5-cyclobutyl-1,2,4-oxadiazol-3-yl)-2,3-dihydro-1H-inden-1-yl)-2-methylisonicotinamide], the “CDMF75 IC15” value amounted to 0.5 µM and the IC50 was found to be 1.8 µM.

Turning to `Cc1ccnc(C(=O)NC2CCc3cc(-c4noc(C)n4)ccc32)c1` (stereo not shown) [Compound 68, 4-methyl-N-(5-(5-methyl-1,2,4-oxadiazol-3-yl)-2,3-dihydro-1H-inden-1-yl)picolinamide], the “CDMF75 IC15” value stood at 1.6 µM and the IC50 came to 6.1 µM.
